The record followed here is patent US5294725A, “Scopularin” (E. R. Squibb & Sons, Inc., priority 1989, dated 1994).

Values after ≈ are worked out from the molar mass of the structure shown.

The term MIC denotes the lowest concentration found to suppress growth. A high value points to weaker potency.

The test system of one test is Candida albicans. The experiment in a line: Agar dilution MIC assay. It counts as cell-based. The protocol: (§1) The following methodology was used to determine the miniumum inhibitory concentration (hereinafter referred to as MIC) of scopularin.
(§2) The aerobic test organisms were grown in approximately 15-20 ml of Antibiotic Assay Broth (Difco) by inoculating (in tubes) the broth with a loopful of the organism from a BHI (Difco) agar slant. The inoculated tubes were incubated at 37° C. for 18 to 24 hours. These cultures are assumed to contain 10^7 colony forming units (CFU) per ml and the cultures were diluted 1:100 to give a final inoculum level of 10^5 CFU dilutions were made with Yeast Beef Broth (Difco).
(§3) Scopularin was dissolved in an appropriate diluent at a concentration of 1,000 μg/ml. Two-fold dilutions were made in Yeast Beef Broth (Difco), resulting in a range from 1000 μg/ml to 0.5 μg/ml. 1.5 ml of each dilution was placed into individual petri dishes to which 13.5 ml of K-10 agar was added. The composition of K-10 agar is:
(§4) The final drug concentration in the agar ranged from 100 μg/ml to 0.05 μg/ml. Organism growth control plates containing agar only were prepared and inoculated before and after the test plates. The organisms were applied to the agar surface of each plate with a Denyl Multipoint Inoculator (which delivers approximately 0.001 ml of each organism) resulting in a final inoculum of 10^4 CFU on the agar surface.
(§5) The plates were incubated at 37° C. for 18 hours and the MICs determined. The MIC is the lowest concentration of compound inhibiting growth of the organism.

A further test has as its system Candida krusei. The experiment in a line: Agar dilution MIC assay. In kind it is cell-based. Conditions: Pichia kudriavzevii, SC2967, 18 h. The protocol: as §1, §2, §3, §4, §5
(In general: In agar dilution, organisms are placed on agar that contains the substance at set levels.)

Test [1] addresses T1, lanosterol demethylase (Candida albicans, UniProt P10613).
T1 construct: endogenous in cells; host or cells: Candida albicans SC5314
In words: Radiolabeled metabolic assay of lanosterol demethylase inhibition (14C-acetate, lanosterol accumulation). It counts as cell-based. Conditions: Candida albicans SC5314, 1 hour, 30°, TLC autoradiography. On the procedure:
(§6) The inhibition of lanosterol demethylase was determined by two methods: the spectrophotometric carbon monoxide binding assay of Omura and Sato (J. Biol. Chem. 239:2370-2378, 1964) and by a radiolabeled metabolic assay.
The ability of scopularin and its alcohol to inhibit the lanosterol demethylase of Candida albicans can also be visualized by a metabolic assay. Candida albicans SC5314, was grown overnight at 30° with shaking in the same medium as that used above. Cells were harvested by centrifugation and resuspended in water to give an optical density of 0.3 at 660 nm. 750 μl of this cell suspension, 300 μl of a medium containing 0.35 g Difco yeast nitrogen base without amino acids, 1 g glucose and distilled water to 10 ml, 100 μl of test material and distilled water were combined to give a final volume of 1.425 ml. This was incubated for 15 minutes at 30° C. with shaking, then 3 μCi ^14 C-acetate was added and continued to incubate for 1 hour. Cells were harvested by centrifugation and extracted with 2×0.5 ml methanol; centrifuged, decanted supernate and repeated the extraction with […] methanol-benzene (1:1). Centrifuged, decanted; combined supernates, dried and resuspended in 100 μl chloroform-methanol (1:1). The aliquots were spotted onto silica gel 60 (Merck) plates and developed chromatographically in a solvent containing dichloromethane-acetone (60:1). […]

Test [2] concerns the target T1, lanosterol demethylase. In words: Spectrophotometric carbon monoxide binding assay (Omura and Sato). Conditions: Candida albicans SGY677, read-out: 50% inhibition of carbon monoxide binding. The protocol:
as §6
Cells of Candida albicans, SGY677, were grown overnight without shaking at 30° C. in a medium consisting of yeast extract 1% , peptone 2%, glucose 2% and distilled water. Cells were harvested by centrifugation and resuspended in 0.65M mannitol to an optical density at 600 nm of 2.5. At this density 1 ml of cells was equal to 6.7 mg constant dry weight (105° C. for 18 hours).

T1 sequence (P10613 whole entry): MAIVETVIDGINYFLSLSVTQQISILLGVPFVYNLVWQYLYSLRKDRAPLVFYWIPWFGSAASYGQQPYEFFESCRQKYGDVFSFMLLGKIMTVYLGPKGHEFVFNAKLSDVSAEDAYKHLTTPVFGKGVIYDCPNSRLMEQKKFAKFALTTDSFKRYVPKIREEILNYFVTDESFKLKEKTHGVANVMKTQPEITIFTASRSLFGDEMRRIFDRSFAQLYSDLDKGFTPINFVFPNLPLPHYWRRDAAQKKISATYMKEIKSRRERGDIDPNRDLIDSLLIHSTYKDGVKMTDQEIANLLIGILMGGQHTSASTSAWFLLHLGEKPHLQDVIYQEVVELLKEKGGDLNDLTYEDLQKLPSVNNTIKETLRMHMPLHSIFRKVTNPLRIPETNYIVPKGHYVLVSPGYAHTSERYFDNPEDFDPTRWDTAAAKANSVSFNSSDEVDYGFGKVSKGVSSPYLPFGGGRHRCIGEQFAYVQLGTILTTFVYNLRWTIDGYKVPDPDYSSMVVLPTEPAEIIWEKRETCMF

For `CCC/C=C/C=C/C=C(\C)[C@H]1OC[C@@H](C)[C@@H](OC)[C@@H]1OC(=O)CN` (relative stereo) [Scopularin, (2α, 3β, 4α, 5α)-Tetrahydro-4-methoxy-5-methyl-2-(1-methyl-1,3,5-nonatrienyl)-2H-pyran-3-ol, amino-acetate ester], the MIC stood at 100 µg/mL (≈ 296 µM) against Candida albicans (SC12, 18 h); 50 µg/mL (≈ 148 µM) against Candida albicans (SC14, 18 h); 0.4 µg/mL (≈ 1.19 µM) in the test on Candida krusei. On lanosterol demethylase [1], the “concentration causing accumulation of lanosterol, consistent with inhibition of lanosterol demethylase” value came to 360 µM.

With `CCCC=CC=CC=C(C)[C@H]1OC[C@@H](C)[C@@H](OC)[C@@H]1O` (relative stereo) [alcohol], on lanosterol demethylase [2], the IC50 amounted to 14 µM. Besides, the “concentration causing accumulation of lanosterol, consistent with inhibition of lanosterol demethylase” value at lanosterol demethylase [1] stood at 14 µM.
